Results reported in US6057117A, “Identification and use of selective inhibitors of glycogen synthase kinase 3” (Chiron Corporation, priority 1999, dated 2000).

Experiments:
Type in all cases: cell-based
[1] = system: HepG2 liver cells; experiment: Glucose uptake in stable tissue culture cells
Source text: (§1) In these assays measurement of the effectiveness of a given inhibitor is accomplished by the effect of inhibitors on glycogen synthase activity as described in Thomas et al, Anal. Biochem. 25:486-99 (1968), glucose uptake as described in Begun and Ragolia Endocrinology 137: 2441-6 (1996), Claraldi et al, J. Clin. Invest. 96:2820-27 (1995), Hara et al, PNAS 91:7415-19 (1994), Robinson and James, Am. J. Physiol. 263:E383-93(1992), and Sasoaka et al, JBC 270: 10885-92 (1995) and glucose incorporation into glycogen as described in Begun and Ragolia Endocrinology 137: 2441-6 (1996), Sasoaka et al, JBC 270: 10885-92 (1995), and Takata et al, JBC 267:9065-70 (1992).
(§2) Assays for glucose uptake and glycogen synthesis can be conducted as described for cell-based assays generally. To measure glucose uptake and glycogen synthesis, a variety of stable tissue culture cell lines that respond to insulin stimulation by increasing the synthesis of glycogen and increasing the rate of glucose uptake from the medium can be used. These include HepG2 liver cells, CHO-IR cells, and Hirc cells. Under appropriate conditions the addition of insulin and glucose to HepG2 cells stimulates glycogen synthase activity and this stimulation is potentiated in the presence of the GSK3 inhibitor iodotubercidin.

[2] = system: Drosophila cells; experiment: β-catenin stabilization assay of intracellular GSK3 activity (western blot); conditions: added to Drosophila cells; detected on a western blot
Source text: Other assays that test functional GSK3 also provide a further test of intracellular GSK3 activity. These assays rely on the ability to observe indirect consequences of GSK3 activity within cells. An example of such an assay involves β-catenin stabilization. Cellular GSK3 activity leads to the destabilization of cytosolic pools of β-catenin in certain types of cell. Consequently, inhibition of GSK3 results in β-catenin stabilization and accumulation, which can be detected on a western blot. […] Similarly, LiCl in the cell culture medium causes an increase in intracellular β-catenin levels as described in Stambolic et al, Cur. Biol. 6(12):1664-8 (1996).

[3] = system: HepG2 liver cells; experiment: Insulin- and glucose-stimulated glycogen synthase activity in stable tissue culture cells; conditions: insulin and glucose added, in the presence of the inhibitor
Source text: as §1, §2

Compound: Nc1ncnc2c1c(I)cn2[C@@H]1O[C@H](CO)[C@@H](O)[C@H]1O [iodotubercidin]
- response of glucose uptake to insulin, glucose and inhibitor [1]: as much as six fold
- β-catenin accumulation [2]: leads to β-catenin accumulation
- stimulation of glycogen synthase activity by insulin and glucose [3]: potentiated
